Active and inactive are the calls of the source. No cut-off for these calls is given here.
Tests used:
3T3-L1 [1] = experiment: Effect on adipogenesis in mouse 3T3L1 cells assessed as PPARgamma mRNA expression by RT-PCR method; type: functional, cell-based
[2] = biological target: cGMP-inhibited 3',5'-cyclic phosphodiesterase 3B (Homo sapiens, UniProt Q13370); experiment: Inhibition of human recombinant PDE3B
3T3-L1 [3] = experiment: Effect on adipogenesis in mouse 3T3L1 cells assessed as G3PD mRNA expression by RT-PCR method; type: functional, cell-based
3T3-L1 [4] = experiment: Effect on adipogenesis in mouse 3T3L1 cells assessed as cellular lipid content by Oil red O staining; type: functional, cell-based
C3H 10T1/2 [5] = experiment: Induction of lipolysis in mouse C3H10T1/2 assessed as glycerol concentration at 10 uM relative to control; type: functional
3T3-L1 [6] = experiment: Effect on adipogenesis in mouse 3T3L1 cells assessed as FABP4 mRNA expression by RT-PCR method; type: functional, cell-based
Adipocyte = experiment: Induction of lipolysis in human Adipocyte assessed as glycerol concentration at 10 uM relative to control; type: functional
3T3-L1 [7] = experiment: Effect on adipogenesis in mouse 3T3L1 cells assessed as adiponectin mRNA expression by RT-PCR method; type: functional, cell-based
C3H 10T1/2 [8] = experiment: Induction of lipolysis in mouse C3H10T1/2 assessed as glycerol concentration; type: functional, cell-based
[9] = biological target: cGMP-inhibited 3',5'-cyclic phosphodiesterase 3A (Homo sapiens, UniProt Q14432); experiment: Inhibition of human recombinant PDE3A
Chain of cGMP-inhibited 3',5'-cyclic phosphodiesterase 3A (Q14432 whole entry): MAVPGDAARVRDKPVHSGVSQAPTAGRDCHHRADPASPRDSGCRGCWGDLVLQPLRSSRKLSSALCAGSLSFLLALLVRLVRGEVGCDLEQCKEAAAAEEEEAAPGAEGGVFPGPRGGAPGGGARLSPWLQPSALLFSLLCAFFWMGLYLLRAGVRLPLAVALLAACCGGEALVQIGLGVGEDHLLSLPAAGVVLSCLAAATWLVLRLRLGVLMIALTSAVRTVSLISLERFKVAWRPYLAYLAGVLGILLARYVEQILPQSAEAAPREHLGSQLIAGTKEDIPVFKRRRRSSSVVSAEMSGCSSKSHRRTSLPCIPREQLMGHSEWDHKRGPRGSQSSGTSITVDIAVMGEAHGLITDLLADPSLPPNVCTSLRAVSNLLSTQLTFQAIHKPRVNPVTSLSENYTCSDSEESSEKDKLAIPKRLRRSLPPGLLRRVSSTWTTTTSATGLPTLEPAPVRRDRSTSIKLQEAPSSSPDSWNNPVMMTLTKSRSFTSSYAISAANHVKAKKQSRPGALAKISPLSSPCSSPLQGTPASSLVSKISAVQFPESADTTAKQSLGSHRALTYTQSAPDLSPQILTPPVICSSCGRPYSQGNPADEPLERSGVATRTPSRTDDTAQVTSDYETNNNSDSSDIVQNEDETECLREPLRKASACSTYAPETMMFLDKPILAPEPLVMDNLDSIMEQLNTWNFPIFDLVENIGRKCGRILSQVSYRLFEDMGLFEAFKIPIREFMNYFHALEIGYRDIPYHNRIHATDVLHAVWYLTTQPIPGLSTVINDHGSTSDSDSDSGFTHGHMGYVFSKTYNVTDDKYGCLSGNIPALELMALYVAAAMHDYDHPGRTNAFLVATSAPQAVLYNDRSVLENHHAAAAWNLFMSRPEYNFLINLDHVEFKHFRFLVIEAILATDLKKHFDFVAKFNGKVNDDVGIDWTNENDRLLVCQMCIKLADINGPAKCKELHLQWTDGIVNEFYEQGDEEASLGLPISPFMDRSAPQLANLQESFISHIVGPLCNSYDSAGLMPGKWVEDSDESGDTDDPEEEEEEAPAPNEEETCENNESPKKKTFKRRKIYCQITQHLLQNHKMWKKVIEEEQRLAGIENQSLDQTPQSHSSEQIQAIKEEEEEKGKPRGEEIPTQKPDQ

Chain of cGMP-inhibited 3',5'-cyclic phosphodiesterase 3B (Q13370 whole entry): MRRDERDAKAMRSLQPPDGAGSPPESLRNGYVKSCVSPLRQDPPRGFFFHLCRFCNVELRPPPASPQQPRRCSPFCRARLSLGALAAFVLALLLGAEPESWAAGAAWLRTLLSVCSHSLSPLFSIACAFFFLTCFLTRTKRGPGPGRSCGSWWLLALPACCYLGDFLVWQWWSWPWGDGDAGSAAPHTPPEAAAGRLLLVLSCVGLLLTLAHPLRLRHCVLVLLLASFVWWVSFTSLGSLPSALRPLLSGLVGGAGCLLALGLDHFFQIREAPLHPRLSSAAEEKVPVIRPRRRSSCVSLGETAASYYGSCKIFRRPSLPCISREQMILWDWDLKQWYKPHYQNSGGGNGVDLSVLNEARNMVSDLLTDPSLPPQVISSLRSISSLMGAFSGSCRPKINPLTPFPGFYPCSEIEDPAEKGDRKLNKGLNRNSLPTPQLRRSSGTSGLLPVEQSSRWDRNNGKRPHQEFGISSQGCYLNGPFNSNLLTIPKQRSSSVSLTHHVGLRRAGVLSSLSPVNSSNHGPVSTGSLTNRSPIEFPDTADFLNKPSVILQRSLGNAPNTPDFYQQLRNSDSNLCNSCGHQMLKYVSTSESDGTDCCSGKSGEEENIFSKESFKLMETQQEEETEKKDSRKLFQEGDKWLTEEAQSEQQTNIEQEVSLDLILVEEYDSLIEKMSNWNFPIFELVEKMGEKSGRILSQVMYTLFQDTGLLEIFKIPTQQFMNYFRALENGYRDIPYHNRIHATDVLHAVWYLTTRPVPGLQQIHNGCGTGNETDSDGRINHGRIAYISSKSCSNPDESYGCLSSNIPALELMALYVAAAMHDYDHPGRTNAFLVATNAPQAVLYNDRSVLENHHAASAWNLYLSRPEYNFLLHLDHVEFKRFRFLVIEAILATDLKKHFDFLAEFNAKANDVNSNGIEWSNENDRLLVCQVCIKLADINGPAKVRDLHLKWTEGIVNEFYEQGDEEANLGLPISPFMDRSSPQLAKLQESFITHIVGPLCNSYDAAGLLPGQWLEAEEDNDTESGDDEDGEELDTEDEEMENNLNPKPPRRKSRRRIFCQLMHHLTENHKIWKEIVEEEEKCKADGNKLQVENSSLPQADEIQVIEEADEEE

Row | IC50 [2] | EC50 (C3H 10T1/2 [8]) | IC50 [9] | SMILES | Activity (3T3-L1 [1]) | Activity (3T3-L1 [3]) | Activity (3T3-L1 [4]) | Activity (C3H 10T1/2 [5]) | Activity (3T3-L1 [6]) | Activity (Adipocyte) | Activity (3T3-L1 [7])
1 | 69.1 nM | 9.1 nM | – | CN(C(=O)CCCOc1ccc2[nH]c(=O)ccc2c1)C1CCCCC1 [CILOSTAMIDE] | Active | Active | Active | 247.36% | Active | 192.4% | Active
2 | – | 5.2 nM | – | Cc1ccc(S(=O)(=O)N/N=C2\CC(C)(C)Oc3ccc([N+](=O)[O-])cc32)cc1 | – | – | – | 168.4% | – | 116.67% | –
3 | – | – | – | CCCC(NS(=O)(=O)c1ccc2c(c1)CCCC(=O)N2)c1cccs1 (stereo not given) | – | – | – | 131.9% | – | 130.2% | –
4 | – | 6.8 nM | – | CC1=NN(S(=O)(=O)c2ccc(C)cc2)C(O)(C(F)(F)F)C1 (stereo not given) | – | – | – | 171.3% | – | 116.67% | –
5 | 88.4 nM | 8.9 nM | 14.8 nM | C/C(=N\NS(=O)(=O)c1ccc(C)cc1)c1ccc2c(c1)C(C)(C)C(=O)N2 | Active | Active | Active | 191.7% | Active | 171.5% | Active

Row | SMILES | IC50 [2] | EC50 (C3H 10T1/2 [8]) | IC50 [9] | Activity (3T3-L1 [1]) | Activity (3T3-L1 [3]) | Activity (3T3-L1 [4]) | Activity (C3H 10T1/2 [5]) | Activity (3T3-L1 [6]) | Activity (Adipocyte) | Activity (3T3-L1 [7])
6 | CC(C)NCC(O)c1ccc(O)c(O)c1 (stereo not given) [ISOPROTERENOL] | – | 19 nM | – | – | – | – | 291.3% | – | 214.39% | –

— ChEMBL document CHEMBL1681753, “Discovery of new inhibitor for PDE3 by virtual screening” (Bioorg Med Chem Lett, 2011)
